Patent US6509361B1, “1,5-Diaryl substituted pyrazoles as p38 kinase inhibitors” (Pharmacia Corporation, priority 2001, dated 2003)

Tests used:
human p38 kinase alpha = biological target: T1, human p38 kinase alpha (Homo sapiens, UniProt Q16539); test: p38 Kinase Assay (in vitro; PHAS-I/32P-ATP format or EGFRP/33P-ATP format); format: biochemical; conditions: activated human p38 kinase alpha, 50 μM unlabeled ATP; table does not say which of the two assay formats
T1 construct: The coding region of the human p38a cDNA was obtained by PCR-amplification from RNA isolated from the human monocyte cell line THP.1; GST (N); made in house; host or cells: E. coli DH10B
Protocol: The coding region of the human p38a cDNA was obtained by PCR-amplification from RNA isolated from the human monocyte cell line THP.1. First strand cDNA was synthesized from total RNA as follows: 2 μg of RNA was annealed to 100 ng of random hexamer primers in a 10 μl reaction by heating to 70° C. for 10 minutes followed by 2 minutes on ice. cDNA was then synthesized by adding 1 μl of RNAsin (Promega, Madison Wis.), 2 μl of 50 mM dNTP's, 4 μl of 5×buffer, 2 μl of 100 mM DTT and 1 μl (200 U) of Superscript II™ […] reverse transcriptase. Random primer, dNTP's and Superscript™ reagents were all purchased from Life-Technologies, Gaithersburg, Mass. The reaction was incubated at 42° C. for 1 hour. Amplification of p38 cDNA was performed by aliquoting 5 μl of the reverse transcriptase reaction into a 100 μl PCR reaction containing the following: 80 μl dH2O, 2 μl 50 mM dNTP's, 1 μl each of forward and reverse primers (50 pmol/μl), 10 μl of 10× buffer and 1 μl Expand™ polymerase (Boehringer Mannheim). The PCR primers incorporated Bam HI sites onto the 5′ and 3′ end of the amplified fragment, and were purchased from Genosys. The forward and reverse primers were 5′-[…]-3′ and 5′[…]-3′, respectively. The PCR amplification was carried out in a DNA Thermal Cycler (Perkin Elmer) by repeating 30 cycles of 94° C. for 1 minute, 60° C. for 1 minute and 68° C. for 2 minutes. After amplification, excess primers and unincorporated dNTP's were removed from the amplified fragment with a Wizard™ PCR prep (Promega) and digested with Bam HI (New England Biolabs). The Bam HI digested fragment was ligated into BamHI digested pGEX 2T plasmid DNA (PharmaciaBiotech) using T-4 DNA ligase (New England Biolabs) as described by T. Maniatis, Molecular Cloning: A Laboratory Manual, 2nd ed. (1989). The ligation reaction was transformed into chemically competent E. coli DH10B cells purchased from Life-Technologies following the manufacturer's instructions. Plasmid DNA was isolated from the resulting bacterial colonies using a Promega Wizard™ miniprep kit. Plasmids containing the appropriate Bam HI fragment were sequenced in a DNA Thermal Cycler (Perkin Elmer) with Prism™ (Applied Biosystems Inc.). cDNA clones were identified that coded for both human p38a isoforms (Lee et al. Nature 372, 739). One of the clones which contained the cDNA for p38a-2 (CSBP-2) inserted in the cloning site of pGEX 2T, 3′ of the GST coding region was designated pMON 35802. The sequence obtained for this clone is an exact match of the cDNA clone reported by Lee et al. This expression plasmid allows for the production of a GST-p38a fusion protein.
Expression of Human p38a:
GST/p38a fusion protein was expressed from the plasmid pMON 35802 in E. coli, stain DH10B (Life Technologies, Gibco-BRL). Overnight cultures were grown in Luria Broth (LB) containing […] ampicillin. The next day, 500 ml of fresh LB was inoculated with 10 ml of overnight culture, and grown in a 2 liter flask at 37° C. with constant shaking until the culture reached an absorbance of 0.8 at 600 nm. Expression of the fusion protein was induced by addition of isopropyl b-D-thiogalactosidse (IPTG) to a final concentration of 0.05 mM. The cultures were shaken for three hours at room temperature, and the cells were harvested by centrifugation. The cell pellets were stored frozen until protein purification.
Purification of p38 Kinase-α:
All chemicals were from Sigma Chemical Co. unless noted. Twenty grams of E. coli cell pellet collected from five 1 L shake flask fermentations was resuspended in a volume of PBS (140 mM NaCl, 2.7 mM KCl, 10 mM Na2HPO4, 1.8 mM KH2PO4, pH 7.3) up to 200 ml. The cell suspension was adjusted to 5 mM DTT with 2 M DTT and then split equally into five 50 ml Falcon conical tubes. The cells were sonnicated (Ultrasonics model W375) with a 1 cm probe for 3×1 minutes (pulsed) on ice. […]

[1] = test system: TNF-a (LPS-stimulated human peripheral blood mononuclear cells); test: TNF Cell Assay: LPS stimulation of human PBM cells, TNF-a by ELISA; format: cell-based; conditions: PBMC, LPS 20 ng/ml, overnight 37° C., compound 10-0.41 μM
Protocol: Method of Isolation of Human Peripheral Blood Mononuclear Cells:
Human whole blood was collected in Vacutainer tubes containing EDTA as an anticoagulant. A blood sample (7 ml) was carefully layered over 5 ml PMN Cell Isolation Medium (Robbins Scientific) in a 15 ml round bottom centrifuge tube. The sample was centrifuged at 450-500×g for 30-35 minutes in a swing out rotor at room temperature. After centrifugation, the top band of cells were removed and washed 3 times with PBS w/o calcium or magnesium. The cells were centrifuged at 400×g for 10 minutes at room temperature. The cells were resuspended in Macrophage Serum Free Medium (Gibco BRL) at a concentration of 2 million cells/ml.
LPS Stimulation of Human PBMS:
PBM cells (0.1 ml, 2 million/ml) were co-incubated with 0.1 ml compound (10-0.41 μM, final concentration) for 1 hour in flat bottom 96 well microtiter plates. Compounds were dissolved in DMSO initially and diluted in TCM for a final concentration of 0.1% DMSO. LPS (Calbiochem, 20 ng/ml, final concentration) was then added at a volume of 0.010 ml. Cultures were incubated overnight at 37° C. Supernatants were then removed and tested by ELISA for TNF-a and IL1-b. Viability was analyzed using MTS. After 0.1 ml supernatant was collected, 0.020 ml MTS was added to remaining 0.1 ml cells. The cells were incubated at 37° C. for 2-4 hours, then the O.D. was measured at […].

[2] = test system: TNF-α released by U937 cells (human histiocytic lymphoma cell line); test: U937 Cell Assay: LPS stimulation of TNF production by U937 cells, ELISA; format: cell-based; conditions: U-937, differentiated U937 cells, LPS 100 ng/ml, 4 hour incubation
Protocol: Maintenance and Differentiation of the U937 Human Histiocytic Lymphoma Cell Line:
U937 cells (ATCC) were propagated in RPMI 1640 containing 10% fetal bovine serum, 100 IU/ml penicillin, 100 μg/ml streptomycin, and 2 mM glutamine (Gibco). Fifty million cells in 100 ml media were induced to terminal monocytic differentiation by 24 hour incubation with 20 ng/ml phorbol 12-myristate 13-acetate (Sigma). The cells were washed by centrifugation (200×g for 5 min) and resuspended in 100 ml fresh medium. After 24-48 hours, the cells were harvested, centrifuged, and resuspended in culture medium at 2 million cells/ml.
LPS Stimulation of TNF Production by U937 Cells:
U937 cells (0.1 ml, 2 million/ml) were incubated with 0.1 ml compound (0.004-50 μM, final concentration) for 1 hour in 96 well microtiter plates. Compounds were prepared as 10 mM stock solutions in DMSO and diluted in culture medium to yield a final DMSO concentration of 0.1% in the cell assay. LPS (E. coli, 100 ng/ml final concentration) was then added at a volume of 0.02 ml. After 4 hour incubation at 37° C., the amount of TNF-α released in the culture medium was quantitated by ELISA. Inhibitory potency is expressed as IC50 (μM).

T1 sequence (Q16539 whole entry): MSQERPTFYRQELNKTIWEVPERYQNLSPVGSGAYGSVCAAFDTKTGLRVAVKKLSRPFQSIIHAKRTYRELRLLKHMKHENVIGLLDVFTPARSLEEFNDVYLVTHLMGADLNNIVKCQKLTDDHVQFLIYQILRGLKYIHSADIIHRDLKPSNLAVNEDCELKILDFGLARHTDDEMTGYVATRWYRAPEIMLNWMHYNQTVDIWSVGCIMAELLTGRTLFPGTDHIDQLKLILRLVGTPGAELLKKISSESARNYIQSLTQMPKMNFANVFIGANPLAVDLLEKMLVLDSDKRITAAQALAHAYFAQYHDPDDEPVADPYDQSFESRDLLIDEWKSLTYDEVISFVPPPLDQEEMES

IC50 (human p38 kinase alpha) [µM]	IC50 [1] [µM]	IC50 [2] [µM]	melting point [°C]	Compound
16.8	0.1	≥ 10	135.86	Cc1cnn(-c2ccc(F)cc2)c1-c1ccncc1 [Example 1]
4.9	0.6	0.66	141.77	Cc1cccc(-n2ncc(C)c2-c2ccncc2)c1 [Example 3]
0.07	0.2	0.72	97.15	CCNc1cc(-c2cc(C)nn2-c2ccc(C)cc2)ccn1 [Example 8]
0.29	0.1	17.9	126.34	CNc1cc(-c2cc(C)nn2-c2ccc(C)cc2)ccn1 [Example 9]
0.07	0.1	0.48	137.57	Cc1cc(-c2ccnc(NCCO)c2)n(-c2ccc(Cl)cc2)n1 [Example 11]
0.003	0.3	0.2	105.53	Cc1cc(-c2ccnc(NCc3ccccc3)c2)n(-c2ccc(Cl)cc2)n1 [Example 12]
7.72	> 10	> 10	215 to 216	NC(=O)c1cnn(-c2ccc(F)cc2)c1-c1ccncc1 [Example 16, 1-(4-Fluorophenyl)-5-(4-pyridinyl)-1H-pyrazole-4-carboxamide]
65.1	> 10	≥ 10	–	O=C(c1cnn(-c2ccc(F)cc2)c1-c1ccncc1)N1CCNCC1 [Example 17]
35.7	> 10	≥ 10	–	Fc1ccc(-n2ncc(N3CCNCC3)c2-c2ccncc2)cc1 [Example 18]
0.079	1.9	1.31	–	COc1cc(-c2cc(C)nn2-c2cccc(C)c2)ccn1 [Example 22, 2-Methoxy-4-[1-(3-methylphenyl)-3-methyl-1H-pyrazol-5-yl]pyridine]
9.55	2.4	≥ 10	182 to 183	Cc1cccc(-n2nc(C)cc2-c2cc[nH]c(=O)c2)c1 [Example 23, 4-[1-(3-Methylphenyl)-3-methyl-1H-pyrazol-5-yl]-2-pyridone]
< 0.01	0.02	0.05	86 to 87	Cc1cccc(-n2nc(C)cc2-c2ccnc(NCCc3ccccc3)c2)c1 [Example 24, 2-(Phenylethylamino)-4-[1-(3-methylphenyl)-3-methyl-1H-pyrazol-5-yl]pyridine]
0.156	0.1	0.21	–	Cc1cccc(-n2nc(C)cc2-c2ccnc(NCCO)c2)c1 [Example 26, 2-(2-Hydroxyethylamino)-4-[1-(3-methylphenyl)-3-methyl-1H-pyrazol-5-yl]pyridine]
> 100	> 10	≥ 10	–	Cc1cccc(-n2nc(C)cc2-c2ccnc(N(C)Cc3ccccc3)c2)c1 [Example 27, 2-(N-Methylbenzylamino)-4-[1-(3-methylphenyl)-3-methyl-1H-pyrazol-5-yl]pyridine]
0.843	> 10	2.64	–	Cc1cccc(-n2nc(C)cc2-c2ccnc(OCc3ccccc3)c2)c1 [Example 28, 2-Bezyloxy-4-[1-(3-methylphenyl)-3-methyl-1H-pyrazol-5-yl]pyridine]
0.129	1.3	0.24	–	Fc1ccc(-n2nccc2-c2ccnc(NCc3ccccc3)c2)cc1 [Example 29, 2-(Benzylamino)-4-[1-(4-fluorophenyl)-1H-pyrazol-5-yl]pyridine]
0.5	1.7	1.65	128 to 130	Cc1cccc(-n2nc(C)cc2-c2ccnc(C#N)c2)c1 [Example 31, 2-Cyano-4-[1-(3-methylphenyl)-3 methyl-1H-pyrazol-5-yl]pyridine]
2.97	> 10	> 10	94 to 95	Cc1cc(-c2ccnc(C#N)c2)n(-c2ccc(F)cc2)n1 [Example 32, 2-Cyano-4-[1-(4-fluorophenyl)-3-methyl-1H-pyrazol-5-yl]pyridine]
1.15	3.4	≥ 10	84 to 85	Cc1cccc(-n2nc(C)cc2-c2ccnc(N(C)C)c2)c1 [Example 35, 2-(Dimethylamino)-4-[1-(3-methylphenyl)-3-methyl-1H-pyrazol-5-yl]pyridine]
1.06	8.1	≥ 10	–	Fc1ccc(-n2nccc2-c2ccnc(Cl)c2)cc1 [Example 45, 2-Chloro-4-[1-(4-fluorophenyl)-1H-pyrazol-5-yl]pyridine]
